{"source": "ChEMBL document CHEMBL3272046", "about": "“Adrenerigic agents. 7.1 Synthesis and beta-adrenergic agonist activity of several 2-pyridylethanolamines” (J Med Chem, 1977)", "assay_type_in_all_cases": "tissue-based", "key": {"Cavia porcellus [1]": {"organism": "Cavia porcellus", "test": "Selectivity ratio of ED25 for beta-adrenergic receptor in guinea pig right atrial muscle to ED50 for beta-adrenergic receptor in guinea pig tracheal tissue", "conditions": "Cardiac atrium"}, "Cavia porcellus [2]": {"organism": "Cavia porcellus", "test": "Agonist activity at beta-adrenergic receptor in guinea pig right atrial muscle assessed as rate of contraction of spontaneously beating atria at 1.7 x 10^-5 M", "conditions": "Cardiac atrium"}, "Cavia porcellus [3]": {"organism": "Cavia porcellus", "test": "Agonist activity at beta-adrenergic receptor in guinea pig tracheal tissue assessed as bronchodilator activity", "conditions": "Trachea"}, "Cavia porcellus [4]": {"organism": "Cavia porcellus", "test": "Agonist activity at beta-adrenergic receptor in guinea pig right atrial muscle assessed as rate of contraction of spontaneously beating atria", "conditions": "Cardiac atrium"}, "Cavia porcellus [5]": {"organism": "Cavia porcellus", "test": "Intrinsic activity at beta-adrenergic receptor in guinea pig right atrial muscle assessed as rate of contraction of spontaneously beating atria relative to isoproterenol", "conditions": "Cardiac atrium"}, "Cavia porcellus [6]": {"organism": "Cavia porcellus", "test": "Agonist activity at beta-adrenergic receptor in guinea pig right atrial muscle assessed as rate of contraction of spontaneously beating atria at 9.9 x 10^-5 M", "conditions": "Cardiac atrium"}}, "data": [{"smiles": "CC(C)(C)NCC(O)c1ccc(O)cn1", "note": "(stereo not given)", "values": [{"measurement": "Selectivity ratio", "setting": "Cavia porcellus [1]", "value": "> 182"}, {"measurement": "Activity", "setting": "Cavia porcellus [2]", "value": 7, "unit": "%"}, {"measurement": "ED50", "setting": "Cavia porcellus [3]", "value": 3.1, "unit": "×10⁻⁷ M"}, {"measurement": "ED25", "setting": "Cavia porcellus [4]", "value": 1.7, "unit": "×10⁻⁵ M"}]}, {"smiles": "CC(C)(C)NCC(O)c1ccc(O)c(CO)c1", "note": "(stereo not given)", "values": [{"measurement": "Selectivity ratio", "setting": "Cavia porcellus [1]", "value": 28}, {"measurement": "ED50", "setting": "Cavia porcellus [3]", "value": 1.1, "unit": "×10⁻⁸ M"}, {"measurement": "ED25", "setting": "Cavia porcellus [4]", "value": 3.1, "unit": "×10⁻⁷ M"}, {"measurement": "Intrinsic activity", "setting": "Cavia porcellus [5]", "value": 0.7}]}, {"smiles": "CC(C)NCC(O)c1ccc(O)c(O)c1", "note": "(stereo not given)", "values": [{"measurement": "ED50", "setting": "Cavia porcellus [3]", "value": 7.1, "unit": "×10⁻⁹ M"}, {"measurement": "ED25", "setting": "Cavia porcellus [4]", "value": 3.4, "unit": "×10⁻⁹ M"}]}, {"smiles": "CC(C)(C)NCC(O)c1ccc(O)c(CS(C)(=O)=O)n1", "note": "(stereo not given)", "values": [{"measurement": "Selectivity ratio", "setting": "Cavia porcellus [1]", "value": "> 3410"}, {"measurement": "Activity", "setting": "Cavia porcellus [6]", "value": 13, "unit": "%"}, {"measurement": "ED50", "setting": "Cavia porcellus [3]", "value": 2.9, "unit": "×10⁻⁸ M"}, {"measurement": "ED25", "setting": "Cavia porcellus [4]", "value": 9.9, "unit": "×10⁻⁵ M"}]}, {"smiles": "CC(C)NCC(O)c1ccc(O)cc1", "note": "(stereo not given)", "values": [{"measurement": "Selectivity ratio", "setting": "Cavia porcellus [1]", "value": 0.7}, {"measurement": "ED50", "setting": "Cavia porcellus [3]", "value": 1.1, "unit": "×10⁻⁷ M"}, {"measurement": "ED25", "setting": "Cavia porcellus [4]", "value": 7.7, "unit": "×10⁻⁸ M"}, {"measurement": "Intrinsic activity", "setting": "Cavia porcellus [5]", "value": 0.8}]}, {"smiles": "CC(C)(C)NCC(O)c1ccc(O)c(CS(C)(=O)=O)c1", "note": "(stereo not given)", "values": [{"measurement": "Selectivity ratio", "setting": "Cavia porcellus [1]", "value": 1650}, {"measurement": "ED50", "setting": "Cavia porcellus [3]", "value": 1.7, "unit": "×10⁻⁸ M"}, {"measurement": "ED25", "setting": "Cavia porcellus [4]", "value": 2.8, "unit": "×10⁻⁵ M"}, {"measurement": "Intrinsic activity", "setting": "Cavia porcellus [5]", "value": 0.3}]}, {"smiles": "CC(C)(C)NCC(O)c1ccc(O)c(CO)n1", "note": "(stereo not given)", "values": [{"measurement": "Selectivity ratio", "setting": "Cavia porcellus [1]", "value": 43}, {"measurement": "ED50", "setting": "Cavia porcellus [3]", "value": 2.8, "unit": "×10⁻⁹ M"}, {"measurement": "ED25", "setting": "Cavia porcellus [4]", "value": 1.2, "unit": "×10⁻⁷ M"}, {"measurement": "Intrinsic activity", "setting": "Cavia porcellus [5]", "value": 0.8}]}, {"smiles": "Cc1nc(C(O)CNC(C)(C)C)ccc1O", "note": "(stereo not given)", "values": [{"measurement": "Selectivity ratio", "setting": "Cavia porcellus [1]", "value": 36}, {"measurement": "ED50", "setting": "Cavia porcellus [3]", "value": 2.8, "unit": "×10⁻⁷ M"}, {"measurement": "ED25", "setting": "Cavia porcellus [4]", "value": 1, "unit": "×10⁻⁵ M"}, {"measurement": "Intrinsic activity", "setting": "Cavia porcellus [5]", "value": 0.4}]}]}
